The values below come from patent US9085555B2, “Complement pathway modulators and uses thereof” (priority 2011, dated 2015).

In the assay the target is Factor D (Homo sapiens (Human), UniProt P00746). Put plainly: biochemical. The class given is biochemical. The conditions noted are these: read-out: IC50.

Molecules are shown by their SMILES. pIC50: −log10 of the molar value.

Sequence of Factor D (P00746 26-253): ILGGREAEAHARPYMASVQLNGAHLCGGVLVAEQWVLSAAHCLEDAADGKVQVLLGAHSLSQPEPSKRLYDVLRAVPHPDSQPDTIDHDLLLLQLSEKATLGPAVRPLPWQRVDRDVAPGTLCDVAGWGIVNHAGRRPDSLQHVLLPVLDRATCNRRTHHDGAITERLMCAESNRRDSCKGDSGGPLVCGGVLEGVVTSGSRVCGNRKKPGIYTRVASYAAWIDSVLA

The pIC50 is the negative decadic logarithm of the IC50, by convention in mol/L. For `NC(=O)n1cc(NC(=O)N2C[C@@H](N)C[C@H]2C(=O)NCc2cc(Cl)ccc2F)c2ccccc21` [Example 55, (2S,4S)-4-Amino-pyrrolidine-1,2-dicarboxylic acid 1-[(1-carbamoyl-1H-indol-3-yl)-amide] 2-(5-chloro-2-fluoro-benzylamide)], the pIC50 was 6.90.

In the case of `NC(=O)n1cc(NC(=O)N2C[C@@H](N)C[C@H]2C(=O)NCc2ccc(F)c(Cl)c2)c2ccccc21` [Example 56, (2S,4S)-4-Amino-pyrrolidine-1,2-dicarboxylic acid 1-[(1-carbamoyl-1H-indol-3-yl)-amide] 2-(3-chloro-4-fluoro-benzylamide)], the pIC50 is 5.71.

With `Cc1c(Cl)cccc1CNC(=O)[C@@H]1C[C@H](N)CN1C(=O)Nc1cn(C(N)=O)c2ccccc12` [Example 57, (2S,4S)-4-Amino-pyrrolidine-1,2-dicarboxylic acid 1-[(1-carbamoyl-1H-indol-3-yl)-amide] 2-(3-chloro-2-methyl-benzylamide)], the pIC50 is 5.87.

With `Cc1ccc(Cl)cc1CNC(=O)[C@@H]1C[C@H](N)CN1C(=O)Nc1cn(C(N)=O)c2ccccc12` [Example 58, (2S,4S)-4-Amino-pyrrolidine-1,2-dicarboxylic acid 1-[(1-carbamoyl-1H-indol-3-yl)-amide] 2-(5-chloro-2-methyl-benzylamide)], the pIC50 was 6.46.

Take `Cc1ccc(CNC(=O)[C@@H]2C[C@H](N)CN2C(=O)Nc2cn(C(N)=O)c3ccccc23)cc1Cl` [Example 59, (2S,4S)-4-Amino-pyrrolidine-1,2-dicarboxylic acid 1-[(1-carbamoyl-1H-indol-3-yl)-amide] 2-(3-chloro-4-methyl-benzylamide)]: the pIC50 was 5.19.

As to `NC(=O)n1cc(NC(=O)N2C[C@@H](N)C[C@H]2C(=O)NCc2cc(Cl)cc(Cl)c2)c2ccccc21` [Example 60, (2S,4S)-4-Amino-pyrrolidine-1,2-dicarboxylic acid 1-[(1-carbamoyl-1H-indol-3-yl)-amide] 2-(3,5-dichloro-benzylamide)], the pIC50 was 6.10.

For the compound `NC(=O)n1cc(NC(=O)N2C[C@@H](N)C[C@H]2C(=O)NCc2ccc(Cl)c(Cl)c2)c2ccccc21` [Example 61, (2S,4S)-4-Amino-pyrrolidine-1,2-dicarboxylic acid 1-[(1-carbamoyl-1H-indol-3-yl)-amide] 2-(3,4-dichloro-benzylamide)], the pIC50 is 5.15.

Turning to `NC(=O)n1cc(NC(=O)N2C[C@@H](N)C[C@H]2C(=O)NCc2c(F)ccc(Cl)c2F)c2ccccc21` [Example 62, (2S,4S)-4-Amino-pyrrolidine-1,2-dicarboxylic acid 1-[(1-carbamoyl-1H-indol-3-yl)-amide] 2-(3-chloro-2,6-difluoro-benzylamide)], the pIC50 is 7.07.

Consider `NC(=O)n1cc(NC(=O)N2C[C@@H](N)C[C@H]2C(=O)NCc2ccc3ccccc3c2)c2ccccc21` [Example 63, (2S,4S)-4-Amino-pyrrolidine-1,2-dicarboxylic acid 1-[(1-carbamoyl-1H-indol-3-yl)-amide] 2-[(naphthalen-2-ylmethyl)-amide]], for which the pIC50 is 4.94.

As to `NC(=O)n1cc(NC(=O)N2C[C@@H](N)C[C@H]2C(=O)NCc2cccc3ccccc23)c2ccccc21` [Example 64, (2S,4S)-4-Amino-pyrrolidine-1,2-dicarboxylic acid 1-[(1-carbamoyl-1H-indol-3-yl)-amide] 2-[(naphthalen-1-ylmethyl)-amide]], the pIC50 is 4.65.

In the case of `Cc1cnc(CNC(=O)[C@@H]2C[C@H](N)CN2C(=O)Nc2cn(C(N)=O)c3ccccc23)s1` [Example 65, (2S,4S)-4-Amino-pyrrolidine-1,2-dicarboxylic acid 1-[(1-carbamoyl-1H-indol-3-yl)-amide] 2-[(5-methyl-thiazol-2-ylmethyl)-amide]], the pIC50 was 4.88.

Turning to `NC(=O)n1cc(NC(=O)N2C[C@@H](N)C[C@H]2C(=O)NCc2ccc(Cl)s2)c2ccccc21` [Example 66, (2S,4S)-4-Amino-pyrrolidine-1,2-dicarboxylic acid 1-[(1-carbamoyl-1H-indol-3-yl)-amide] 2-[(5-chloro-thiophen-2-ylmethyl)-amide]], the negative-log IC50 (pIC50) is 7.19.

On to `Cc1ccnc(CNC(=O)[C@@H]2C[C@H](N)CN2C(=O)Nc2cn(C(N)=O)c3ccccc23)c1` [Example 67, (2S,4S)-4-Amino-pyrrolidine-1,2-dicarboxylic acid 1-[(1-carbamoyl-1H-indol-3-yl)-amide] 2-[(4-methyl-pyridin-2-ylmethyl)-amide]], for which the pIC50 was 4.65.

Consider `C[C@H](NC(=O)[C@@H]1C[C@H](N)CN1C(=O)Nc1cn(C(N)=O)c2ccccc12)c1cccc(Cl)c1` [Example 68, (2S,4S)-4-Amino-pyrrolidine-1,2-dicarboxylic acid 1-[(1-carbamoyl-1H-indol-3-yl)-amide] 2-{[(S)-1-(3-chloro-phenyl)-ethyl]-amide}], for which the pIC50 was 4.82.

As to `C[C@@H](NC(=O)[C@@H]1C[C@H](N)CN1C(=O)Nc1cn(C(N)=O)c2ccccc12)c1cccc(Cl)c1` [Example 69, (2S,4S)-4-Amino-pyrrolidine-1,2-dicarboxylic acid 1-[(1-carbamoyl-1H-indol-3-yl)-amide] 2-{[(R)-1-(3-chloro-phenyl)-ethyl]-amide}], the pIC50 was 5.98.

As for `NC(=O)n1cc(NC(=O)N2C[C@@H](N)C[C@H]2C(=O)NC(CO)c2cc(Cl)cc(Cl)c2)c2ccccc21` (stereo partly drawn) [Example 70, (2S,4S)-4-Amino-pyrrolidine-1,2-dicarboxylic acid 1-[(1-carbamoyl-1H-indol-3-yl)-amide] 2-{[1-(3,5-dichloro-phenyl)-2-hydroxy-ethyl]-amide}], the negative-log IC50 (pIC50) is 5.59.

Turning to `NC(=O)n1cc(NC(=O)N2C[C@@H](N)C[C@H]2C(=O)NC(CCO)c2cccc(Cl)c2)c2ccccc21` (stereo partly drawn) [Example 71, (2S,4S)-4-Amino-pyrrolidine-1,2-dicarboxylic acid 1-[(1-carbamoyl-1H-indol-3-yl)-amide] 2-{[1-(3-chloro-phenyl)-3-hydroxy-propyl]-amide}], the pIC50 was 5.54.

As for `NC(=O)n1cc(NC(=O)N2C[C@@H](N)C[C@H]2C(=O)NC2(c3ccccc3)CC2)c2ccccc21` [Example 72, (2S,4S)-4-Amino-pyrrolidine-1,2-dicarboxylic acid 1-[(1-carbamoyl-1H-indol-3-yl)-amide] 2-[(1-phenyl-cyclopropyl)-amide]], the negative logarithm of the IC50 (pIC50) is 5.15.

Consider `NC(=O)n1cc(NC(=O)N2C[C@@H](N)C[C@H]2C(=O)NC(c2ccccc2)c2ccccc2)c2ccccc21` [Example 73, (2S,4S)-4-Amino-pyrrolidine-1,2-dicarboxylic acid 2-benzhydryl-amide 1-[(1-carbamoyl-1H-indol-3-yl)-amide]], for which the pIC50 was 6.49.

With `NC(=O)n1cc(NC(=O)N2C[C@@H](N)C[C@H]2C(=O)NCC2CCCCC2)c2ccccc21` [Example 74, (2S,4S)-4-Amino-pyrrolidine-1,2-dicarboxylic acid 1-[(1-carbamoyl-1H-indol-3-yl)-amide] 2-cyclohexylmethyl-amide], the pIC50 was 5.44.

`NC(=O)n1cc(NC(=O)N2C[C@@H](N)C[C@H]2C(=O)NC[C@@H]2CCCC[C@@H]2O)c2ccccc21` [Example 76, (2S,4S)-4-Amino-pyrrolidine-1,2-dicarboxylic acid 1-[(1-carbamoyl-1H-indol-3-yl)-amide] 2-[((1S,2S)-2-hydroxy-cyclohexylmethyl)-amide]]: the pIC50 was 4.81.

Take `NC(=O)n1cc(NC(=O)N2C[C@@H](N)C[C@H]2C(=O)NC2CCCCC2)c2ccccc21` [Example 77, (2S,4S)-4-Amino-pyrrolidine-1,2-dicarboxylic acid 1-[(1-carbamoyl-1H-indol-3-yl)-amide] 2-cyclohexylamide]: the pIC50 was 4.84.

For `NC(=O)n1cc(NC(=O)N2C[C@@H](N)C[C@H]2C(=O)NC2CCCN(c3ccccn3)C2)c2ccccc21` (stereo partly drawn) [Example 78, (2S,4S)-4-Amino-pyrrolidine-1,2-dicarboxylic acid 1-[(1-carbamoyl-1H-indol-3-yl)-amide] 2-[(3,4,5,6-tetrahydro-2H-[1,2′]bipyridinyl-3-yl)-amide]], the pIC50 was 4.98.

As to `NC(=O)n1cc(NC(=O)N2C[C@@H](N)C[C@H]2C(=O)NC2CCc3ccc(Cl)cc32)c2ccccc21` (stereo partly drawn) [Example 79, (2S,4S)-4-Amino-pyrrolidine-1,2-dicarboxylic acid 1-[(1-carbamoyl-1H-indol-3-yl)-amide] 2-[(6-chloro-indan-1-yl)-amide]], the pIC50 is 5.22.

Take `NC(=O)n1cc(NC(=O)N2C[C@@H](N)C[C@H]2C(=O)NC2CCOc3ccc(Cl)cc32)c2ccccc21` (stereo partly drawn) [Example 80, (2S,4S)-4-Amino-pyrrolidine-1,2-dicarboxylic acid 1-[(1-carbamoyl-1H-indol-3-yl)-amide] 2-[(6-chloro-chroman-4-yl)-amide]]: the negative-log IC50 (pIC50) was 4.83.

As for `NC(=O)n1cc(NC(=O)N2C[C@@H](N)C[C@H]2C(=O)NCCc2ccccc2)c2ccccc21` [Example 81, (2S,4S)-4-Amino-pyrrolidine-1,2-dicarboxylic acid 1-[(1-carbamoyl-1H-indol-3-yl)-amide] 2-(phenethyl-amide)], the pIC50 is 5.32.

For `NC(=O)n1cc(NC(=O)N2C[C@@H](N)C[C@H]2C(=O)NCC(O)c2ccccc2)c2ccccc21` (stereo partly drawn) [Example 82, (2S,4S)-4-Amino-pyrrolidine-1,2-dicarboxylic acid 1-[(1-carbamoyl-1H-indol-3-yl)-amide] 2-[(2-hydroxy-2-phenyl-ethyl)-amide]], the pIC50 was 4.61.

For the compound `NC(=O)n1cc(NC(=O)N2C[C@@H](N)C[C@H]2C(=O)N[C@@H]2C[C@H]2c2ccccc2)c2ccccc21` [Example 83], the negative-log IC50 (pIC50) was 5.65.

In the case of `C[C@@H](CNC(=O)[C@@H]1C[C@H](N)CN1C(=O)Nc1cn(C(N)=O)c2ccccc12)c1ccccc1` [Example 84, (2S,4S)-4-Amino-pyrrolidine-1,2-dicarboxylic acid 1-[(1-carbamoyl-1H-indol-3-yl)-amide] 2-[((R)-2-phenyl-propyl)-amide]], the pIC50 was 5.22.

For `C[C@H](CNC(=O)[C@@H]1C[C@H](N)CN1C(=O)Nc1cn(C(N)=O)c2ccccc12)c1ccccc1` [Example 85, (2S,4S)-4-Amino-pyrrolidine-1,2-dicarboxylic acid 1-[(1-carbamoyl-1H-indol-3-yl)-amide] 2-[((S)-2-phenyl-propyl)-amide]], the pIC50 is 4.95.
